Assay results published in patent publication US20240182460A1, “ALLOSTERIC CHROMENONE INHIBITORS OF PHOSPHOINOSITIDE 3-KINASE (PI3K) FOR THE TREATMENT OF DISEASE” (PETRA PHARMA CORPORATION, priority 2022, published 2024).
pIC50: −log10 of the molar value.

Experiments:
[1] = Metabolic stability and intrinsic clearance in human liver microsomes (MICS); format: in vitro ADME; conditions: human, microsomes, pH 7.4
Experimental: Metabolic Stability and Intrinsic Clearance in Liver Microsomes (MICS)
One objective of this assay is to measure in vitro metabolic stability of a test compound in liver microsomes of one or more different species. The concentration of a control compound in the reaction system is evaluated by LC/MS/MS for calculating intrinsic clearance of a test compound and estimating the stability of the control compound and test compound in liver microsomes of one or more different species.
Microsomes (MICS). Human Liver Microsomes (HLM), Monkey Liver Microsomes (MKLM), Dog Liver Microsomes (DLM), Rat Liver Microsomes (RLM), and Mouse Liver Microsomes (MLM) are obtained at a concentration of 20 mg/mL protein from commercial sources and stored in a −80° C. freezer. Prior to use, liver microsomes are removed from the freezer and allowed to thaw in a 37° C. water bath and then stored on wet ice.
Stock Solutions. Test Compound (TC) Stock Solutions are prepared in DMSO at a concentration of 10 mM and stored for later use. Positive Control (PC) Stock Solutions of verapamil·HCL (FW: 491.1 g/mol) in DMSO are prepared at a concentration of 10 mM (4.91 mg/mL), and stored at the condition same as the stock solutions of test compounds.
Phosphate Buffer. Phosphate Buffer (100 mM, pH 7.4) is prepared by combining a Solution A and a Solution B as follows.
To prepare Solution A, 7.098 g of disodium hydrogen phosphate was combined with 500 mL of pure water and sonicated to dissolve. To prepare the Solution B, 3.400 g of potassium dihydrogen phosphate was combined with 250 mL of pure water and sonicated to dissolve. Solution A was placed on a stirrer and Solution B was slowly added into Solution A until the pH reached 7.4.
NADPH Solution. A 10 mM NADPH Solution is prepared by dissolving NADPH (MW: 833.4 g/mol) at 8.334 mg/mL in phosphate buffer (100 mM, pH 7.4).
Microsome Master Solution. A Microsome Master Solution is prepared by adding 6.25 μL microsomes (20 mg/mL) to 216.25 μL Phosphate Buffer (100 mM). The final concentration is Phosphate Buffer (100 mM); microsomes (0.5 mg/mL).
Dilution of Stock Solutions. The TC Stock Solutions (10 mM in DMSO) and the PC Stock Solutions (10 mM in DMSO) are diluted by adding 3 μL of the TC Stock Solution or the PC Stock Solution to 297 μL of 50% acetonitrile/50% water.
Incubation. Two separated experiments were performed as follows. a) With Cofactors (NADPH): 25 μL of 10 mM NADPH was added to the incubations. The final concentrations of
microsomes and NADPH were 0.5 mg/mL and 1 mM, respectively. b) Without Cofactors (NADPH): 25 μL of 100 mM Phosphate buffer was added to the incubations. The final concentration of microsomes was 0.5 mg/mL. The mixture was pre-warmed at 37° C. for 10 minutes.
The reaction was started with the addition of 2.5 μL of 100 μM PC solution or TC solutions.
Verapamil was used as PC in this study. The final concentration of test compound or control compound was 1 μM. The incubation solution was incubated in water batch at 37° C.
Reaction Termination. Aliquots of 30 μL were taken from the reaction solution at 0.5, 5, 15, 30 and 60 minutes and added to plates. The reaction was stopped by the addition of 5 volumes of cold acetonitrile and a solution containing 100 nM alprazolam, 200 nM caffeine and 100 nM tolbutamide.
Sampling. The plates containing the terminated reactions were centrifuged at 4000 rpm for 30 minutes. Supernatant of each compound (40 μL) was transferred into a 96-well analysis plate.
Four compound samples are pooled together into one cassette and diluted by adding 160 μL of pure water. All incubations are performed in duplicate.
Analysis and Data Processing. Quantitative LC-MS analysis is performed, and peak areas are determined from extracted ion chromatograms. Percent parent remaining was calculated from peak area of TC or PC. The slope value, k, is determined by linear regression of the natural logarithm of percent parent remaining vs. incubation time curve. […]

PI3Kα E545K = PI3Kα E545K (Homo sapiens, UniProt P42336, E545K); assay: PI3Kα E545K mutant in vitro cell based assay, MDA-MB-361 cells; parameters: MDA-MB-361 (ATCC-HTB-27) cell line (PI3Kα E545K); host or cells: MDA-MB-361; conditions: MDA-MB-361 cell line, 0% FBS, no insulin, 3 hours treatment
Text: PI3K-Alpha Kinase (PI3Kα) Activity: Wild-Type PI3Kα, H1047R Mutant PI3Kα, and E545K Mutant PI3Kα In Vitro Cell Based Assays and Determination of IC50 Values for Inhibitors
The MDA-MB-453 (ATCC-HTB-131) cell line (PI3Kα H1047R) and MCF-7 (ATCC-HTB-22) cell line (PI3Kα E545K), MDA-MB-361 (ATCC-HTB-27) cell line (PI3Kα E545K), and SKBR3 (ATCC-HTB-30) cell line (wild type PI3Kα) were obtained from the American Type Culture Collection (Manassas, VA). MDA-MB-453 cells were maintained in Dulbecco's Modified Eagle Media (DMEM, Gibco 12430) supplemented with 10% Fetal Bovine Serum, heat inactivated (FBS HI, Gibco 10082), 1× non-essential amino acids (NEAA, Gibco 11140), 1 mM sodium pyruvate (Gibco 11360) and 1× Anti-Anti (Gibco 15240). MCF-7 cells were maintained in Minimum Essential Media (MEM) (Gibco 11095) supplemented with 10% Fetal Bovine Serum, heat inactivated (FBS HI, Gibco 10082), 1× non-essential amino acids (NEAA, Gibco 11140), 1 mM sodium pyruvate (Gibco 11360), 1× Anti-Anti (Gibco 15240) and 10 μg/mL human insulin (Sigma I 9278). MDA-MB-361 cells were maintained in Dulbecco's Modified Eagle Media (DMEM, Gibco 12430) supplemented with 20% Fetal Bovine Serum, heat inactivated (FBS HI, Gibco 10082), 1× non-essential amino acids (NEAA, Gibco 11140), 1 mM sodium pyruvate (Gibco 11360) and 1× Anti-Anti (Gibco 15240). SKBR3 cells were maintained in McCoy's 5A (Gibco 16600) supplemented with 10% Fetal Bovine Serum, heat inactivated (FBS HI, Gibco 10082), and 1× Anti-Anti (Gibco 15240). Cultures were maintained in a humidified incubator at 37° C. under 5% CO2/95% air.
For compound testing in 0% FBS, MDA-MB-453, MCF-7 and SKBR3 cells were seeded at a density of 1.5×10^4, 1.0×10^4, and 1.0×10^4 cells, respectively, per well in white 384-well plates in 20 μl of Minimum Essential Media (MEM) assay media with 1×NEAA, 1 mM sodium pyruvate, and 1 μg/mL human insulin (Sigma 19278) (Assay Medium); while MDA-MB-361 cells were seeded at a density of 1.5×10^4 per well in white 384-well plates in 20 μl Assay Medium without insulin. After plating, cells were allowed to attach overnight. Compounds dissolved in 10 mM stock solutions in DMSO were serially diluted 1:3 in DMSO to generate a 10-point dilution series and plated using an acoustic liquid handler system (Echo 550 Series Liquid Handler, Labcyte). A 5× intermediate compound dilution plate in MEM with 1×NEAA and 1 mM sodium pyruvate (150 μM starting compound concentration in 1.5% DMSO) was then prepared. Five μl of the intermediate serially diluted compounds were added to the cell plate to final concentrations ranging from […] in 0.3% DMSO. 0.3% DMSO alone was used to establish the maximum (MAX) signal and GDC-0032 at a final concentration of 1 μM was used as a reference compound for the minimum (MIN) signal. After 3 hours treatment, the medium was removed, and the cells were lysed in 10 μL of 1× SureFire Lysis buffer with shaking for 10 minutes at room temperature. The Acceptor Mix (Reaction Buffer 1+Reaction Buffer 2+Activation Buffer+SureFire Ultra Acceptor Beads) was prepared by diluting Activation buffer 25-fold in combined Reaction Buffer 1 and Reaction Buffer 2.
The Acceptor beads were diluted 50-fold in the combined Reaction Buffers. Five μL of Acceptor Mix was added to each well, the plate was sealed and covered with foil and incubated for 1 hour at room temperature. The Donor Mix (dilution buffer+SureFire Ultra Donor Beads) was prepared by diluting Donor Beads 50-fold in dilution buffer. Five μL of the Donor Mix was added to each well and the plate sealed and covered with foil and incubated for 1-2 hours at room temperature in the dark. The plates were read on a Neo2 plate reader instrument from Biotek using standard AlphaLisa settings.
Compounds were tested in duplicate and the % inhibition at each compound concentration was used to generate two dose response curves. One IC50 was generated using average % inhibition at each compound concentration. […]

Chain of PI3Kα E545K (P42336 whole entry E545K): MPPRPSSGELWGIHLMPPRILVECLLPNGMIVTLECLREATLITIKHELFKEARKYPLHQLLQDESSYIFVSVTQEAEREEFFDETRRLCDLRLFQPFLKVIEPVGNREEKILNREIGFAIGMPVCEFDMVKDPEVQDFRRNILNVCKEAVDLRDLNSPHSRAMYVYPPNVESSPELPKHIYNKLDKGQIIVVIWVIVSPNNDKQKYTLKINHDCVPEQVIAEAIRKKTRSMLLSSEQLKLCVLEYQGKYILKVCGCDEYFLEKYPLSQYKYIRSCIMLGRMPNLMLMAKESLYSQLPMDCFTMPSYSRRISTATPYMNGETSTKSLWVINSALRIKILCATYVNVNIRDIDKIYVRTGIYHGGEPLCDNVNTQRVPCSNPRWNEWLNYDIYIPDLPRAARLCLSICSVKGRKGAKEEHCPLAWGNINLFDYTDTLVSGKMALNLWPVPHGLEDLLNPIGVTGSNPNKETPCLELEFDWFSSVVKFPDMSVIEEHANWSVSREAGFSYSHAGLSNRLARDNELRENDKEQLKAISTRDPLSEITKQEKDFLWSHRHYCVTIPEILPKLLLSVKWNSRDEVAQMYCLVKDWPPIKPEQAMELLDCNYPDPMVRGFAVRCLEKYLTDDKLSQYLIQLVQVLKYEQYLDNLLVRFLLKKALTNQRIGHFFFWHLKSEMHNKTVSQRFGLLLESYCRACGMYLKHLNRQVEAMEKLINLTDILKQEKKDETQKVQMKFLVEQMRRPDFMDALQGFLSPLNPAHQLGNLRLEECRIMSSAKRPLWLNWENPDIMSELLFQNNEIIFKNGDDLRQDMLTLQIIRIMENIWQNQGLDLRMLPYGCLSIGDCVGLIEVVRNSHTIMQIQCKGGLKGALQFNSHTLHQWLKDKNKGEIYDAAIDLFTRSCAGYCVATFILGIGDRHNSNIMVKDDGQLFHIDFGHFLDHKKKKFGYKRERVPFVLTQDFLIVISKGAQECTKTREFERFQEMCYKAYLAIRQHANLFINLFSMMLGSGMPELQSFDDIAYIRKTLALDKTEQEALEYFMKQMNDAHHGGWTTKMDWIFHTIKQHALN
Chain of PI3Kα E545K (P27986 whole entry partner): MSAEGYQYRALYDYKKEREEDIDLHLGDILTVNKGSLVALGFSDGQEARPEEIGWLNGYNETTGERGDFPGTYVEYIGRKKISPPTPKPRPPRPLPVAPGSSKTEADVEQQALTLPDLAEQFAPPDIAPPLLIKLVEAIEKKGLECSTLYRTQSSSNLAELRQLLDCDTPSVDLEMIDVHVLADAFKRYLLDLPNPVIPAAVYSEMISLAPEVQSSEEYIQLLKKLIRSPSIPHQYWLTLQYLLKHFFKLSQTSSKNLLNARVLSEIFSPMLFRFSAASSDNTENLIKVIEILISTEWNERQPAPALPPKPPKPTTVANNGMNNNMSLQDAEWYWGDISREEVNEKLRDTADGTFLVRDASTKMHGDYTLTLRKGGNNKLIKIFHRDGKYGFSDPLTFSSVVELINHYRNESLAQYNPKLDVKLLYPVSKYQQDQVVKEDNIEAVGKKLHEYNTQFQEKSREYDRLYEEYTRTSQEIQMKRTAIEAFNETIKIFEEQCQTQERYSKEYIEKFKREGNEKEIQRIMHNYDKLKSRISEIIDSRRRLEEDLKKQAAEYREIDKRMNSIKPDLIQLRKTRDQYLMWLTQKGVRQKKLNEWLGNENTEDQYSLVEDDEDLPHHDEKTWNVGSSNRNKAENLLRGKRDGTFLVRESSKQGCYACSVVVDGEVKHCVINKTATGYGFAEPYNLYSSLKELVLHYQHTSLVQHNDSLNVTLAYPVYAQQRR

Row | Structure (SMILES) | microsomal CLint at 1 μM [1] | pIC50 (PI3Kα E545K)
1 | Cc1cc([C@@H](C)Oc2ccc(Cl)nc2C(N)=O)c2oc(-c3cnc4ccoc4c3)c(C)c(=O)c2c1 [Example 80C, 6-Chloro-3-[(1R)-1-(2-furo[3,2-b]pyridin-6-yl-3,6-dimethyl-4-oxo-chromen-8-yl)ethoxy]pyridine-2-carboxamide] | < 50 µL/min/mg | > 6.30
2 | Cc1cc([C@@H](C)Oc2ccc(Cl)nc2S(N)(=O)=O)c2oc(-c3cnc4ccoc4c3)c(C)c(=O)c2c1 [Example 22C, 6-Chloro-3-[(1R)-1-(2-furo[3,2-b]pyridin-6-yl-3,6-dimethyl-4-oxo-chromen-8-yl)ethoxy]pyridine-2-sulfonamide] | < 50 µL/min/mg | > 6.30
3 | Cc1cc([C@@H](C)Oc2ccc(Cl)nc2S(N)(=O)=O)c2oc(-c3cnn(C[C@@H](C)O)c3)c(C)c(=O)c2c1 [Example 4B, 6-Chloro-3-[(1R)-1-[2-[1-[(2R)-2-hydroxypropyl]pyrazol-4-yl]-3,6-dimethyl-4-oxo-chromen-8-yl]ethoxy]pyridine-2-sulfonamide] | < 50 µL/min/mg | > 6.30
4 | Cc1cc([C@@H](C)Oc2ccc(Cl)nc2C(N)=O)c2oc(-c3ccc4nn(C)cc4c3)c(C)c(=O)c2c1 [Example 11A, 6-Chloro-3-[(1R)-1-[3,6-dimethyl-2-(2-methylindazol-5-yl)-4-oxo-chromen-8-yl]ethoxy]pyridine-2-carboxamide] | < 50 µL/min/mg | > 6.30
5 | Cc1cc([C@@H](C)Oc2ccc(Cl)cc2S(N)(=O)=O)c2oc(C3CC3)c(C)c(=O)c2c1 [Example 101C, 5-Chloro-2-[(1R)-1-(2-cyclopropyl-3,6-dimethyl-4-oxo-chromen-8-yl)ethoxy]benzenesulfonamide] | < 50 µL/min/mg | > 6.30
6 | Cc1cc([C@@H](C)Oc2ccc(F)nc2S(N)(=O)=O)c2oc(-c3ccccc3)c(C)c(=O)c2c1 [Example 74C, 3-[(1R)-1-(3,6-Dimethyl-4-oxo-2-phenyl-chromen-8-yl)ethoxy]-6-fluoro-pyridine-2-sulfonamide] | < 50 µL/min/mg | > 6.30
7 | Cc1cc([C@@H](C)Oc2ccc(F)cc2S(N)(=O)=O)c2oc(-c3cnn(C)c3)c(C)c(=O)c2c1 [Example 105C, 2-[(1R)-1-[3,6-Dimethyl-2-(1-methylpyrazol-4-yl)-4-oxo-chromen-8-yl]ethoxy]-5-fluoro-benzenesulfonamide] | < 50 µL/min/mg | > 6.30
8 | Cc1cc([C@@H](C)Oc2ccc(Cl)cc2S(N)(=O)=O)c2oc(-c3cnn(C)c3)c(C)c(=O)c2c1 [Example 99C, 5-Chloro-2-[(1R)-1-[3,6-dimethyl-2-(1-methylpyrazol-4-yl)-4-oxo-chromen-8-yl]ethoxy]benzenesulfonamide] | < 50 µL/min/mg | > 6.30
9 | CCn1cc2cc(-c3oc4c([C@@H](C)Oc5ccc(Cl)nc5C(N)=O)cc(C)cc4c(=O)c3C)ccc2n1 [Example 75C, 6-Chloro-3-[(1R)-1-[2-(2-ethylindazol-5-yl)-3,6-dimethyl-4-oxo-chromen-8-yl]ethoxy]pyridine-2-carboxamide] | < 50 µL/min/mg | > 6.30
10 | Cc1cc([C@@H](C)Oc2ccc(Cl)nc2S(N)(=O)=O)c2oc(-c3cnn(CC(C)(C)O)c3)c(C)c(=O)c2c1 [Example 2B, 6-Chloro-3-[(1R)-1-[2-[1-(2-hydroxy-2-methyl-propyl)pyrazol-4-yl]-3,6-dimethyl-4-oxo-chromen-8-yl]ethoxy]pyridine-2-sulfonamide] | < 50 µL/min/mg | > 6.30
11 | Cc1cc([C@@H](C)Oc2ccc(Cl)nc2C(N)=O)c2oc(-c3cnc(OC(C)C)nc3)c(C)c(=O)c2c1 [Example 79C, 6-Chloro-3-[(1R)-1-[2-(2-isopropoxypyrimidin-5-yl)-3,6-dimethyl-4-oxo-chromen-8-yl]ethoxy]pyridine-2-carboxamide] | < 50 µL/min/mg | > 6.30
